ChEMBL document CHEMBL3886728, “Dihydrobenzoxazine and tetrahydroquinoxaline sodium channel inhibitors” (2016)

Legend:
[1] = target: T1, Sodium channel protein type 9 subunit alpha (Homo sapiens, UniProt Q15858); assay: In Vitro Assay: HEK 293 cells stably transfected with either Nav 1.7 or with Nav 1.5 were recorded in population patch-clamp mode with the IonWorks® Quattro automated electrophysiology system in accordance with the manufacturer's specifications (Molecular Devices, LLC, Sunnyvale, Calif.). Sodium channel currents were measured in response to a train of depolarizations that induced successively greater inactivation. Cells were held at −110 mV for three seconds (Nav 1.7) or half a second (Nav 1.5) from a holding voltage of −15 mV, then put through a series of 26 pulses of 150 msec duration to −20 mV at a frequency of 5 Hz. Cells were then left unclamped for a period of 3 to 8 minutes while a single concentration of test compound was added. Cells were then reclamped and put through the same voltage protocol. Current at the end of the 26th pulse to −20 mV was subtracted from the peak current evoked by the 26th pulse to −20 mV to correct for leak current.; format: cell-based
T1 sequence (Q15858 whole entry): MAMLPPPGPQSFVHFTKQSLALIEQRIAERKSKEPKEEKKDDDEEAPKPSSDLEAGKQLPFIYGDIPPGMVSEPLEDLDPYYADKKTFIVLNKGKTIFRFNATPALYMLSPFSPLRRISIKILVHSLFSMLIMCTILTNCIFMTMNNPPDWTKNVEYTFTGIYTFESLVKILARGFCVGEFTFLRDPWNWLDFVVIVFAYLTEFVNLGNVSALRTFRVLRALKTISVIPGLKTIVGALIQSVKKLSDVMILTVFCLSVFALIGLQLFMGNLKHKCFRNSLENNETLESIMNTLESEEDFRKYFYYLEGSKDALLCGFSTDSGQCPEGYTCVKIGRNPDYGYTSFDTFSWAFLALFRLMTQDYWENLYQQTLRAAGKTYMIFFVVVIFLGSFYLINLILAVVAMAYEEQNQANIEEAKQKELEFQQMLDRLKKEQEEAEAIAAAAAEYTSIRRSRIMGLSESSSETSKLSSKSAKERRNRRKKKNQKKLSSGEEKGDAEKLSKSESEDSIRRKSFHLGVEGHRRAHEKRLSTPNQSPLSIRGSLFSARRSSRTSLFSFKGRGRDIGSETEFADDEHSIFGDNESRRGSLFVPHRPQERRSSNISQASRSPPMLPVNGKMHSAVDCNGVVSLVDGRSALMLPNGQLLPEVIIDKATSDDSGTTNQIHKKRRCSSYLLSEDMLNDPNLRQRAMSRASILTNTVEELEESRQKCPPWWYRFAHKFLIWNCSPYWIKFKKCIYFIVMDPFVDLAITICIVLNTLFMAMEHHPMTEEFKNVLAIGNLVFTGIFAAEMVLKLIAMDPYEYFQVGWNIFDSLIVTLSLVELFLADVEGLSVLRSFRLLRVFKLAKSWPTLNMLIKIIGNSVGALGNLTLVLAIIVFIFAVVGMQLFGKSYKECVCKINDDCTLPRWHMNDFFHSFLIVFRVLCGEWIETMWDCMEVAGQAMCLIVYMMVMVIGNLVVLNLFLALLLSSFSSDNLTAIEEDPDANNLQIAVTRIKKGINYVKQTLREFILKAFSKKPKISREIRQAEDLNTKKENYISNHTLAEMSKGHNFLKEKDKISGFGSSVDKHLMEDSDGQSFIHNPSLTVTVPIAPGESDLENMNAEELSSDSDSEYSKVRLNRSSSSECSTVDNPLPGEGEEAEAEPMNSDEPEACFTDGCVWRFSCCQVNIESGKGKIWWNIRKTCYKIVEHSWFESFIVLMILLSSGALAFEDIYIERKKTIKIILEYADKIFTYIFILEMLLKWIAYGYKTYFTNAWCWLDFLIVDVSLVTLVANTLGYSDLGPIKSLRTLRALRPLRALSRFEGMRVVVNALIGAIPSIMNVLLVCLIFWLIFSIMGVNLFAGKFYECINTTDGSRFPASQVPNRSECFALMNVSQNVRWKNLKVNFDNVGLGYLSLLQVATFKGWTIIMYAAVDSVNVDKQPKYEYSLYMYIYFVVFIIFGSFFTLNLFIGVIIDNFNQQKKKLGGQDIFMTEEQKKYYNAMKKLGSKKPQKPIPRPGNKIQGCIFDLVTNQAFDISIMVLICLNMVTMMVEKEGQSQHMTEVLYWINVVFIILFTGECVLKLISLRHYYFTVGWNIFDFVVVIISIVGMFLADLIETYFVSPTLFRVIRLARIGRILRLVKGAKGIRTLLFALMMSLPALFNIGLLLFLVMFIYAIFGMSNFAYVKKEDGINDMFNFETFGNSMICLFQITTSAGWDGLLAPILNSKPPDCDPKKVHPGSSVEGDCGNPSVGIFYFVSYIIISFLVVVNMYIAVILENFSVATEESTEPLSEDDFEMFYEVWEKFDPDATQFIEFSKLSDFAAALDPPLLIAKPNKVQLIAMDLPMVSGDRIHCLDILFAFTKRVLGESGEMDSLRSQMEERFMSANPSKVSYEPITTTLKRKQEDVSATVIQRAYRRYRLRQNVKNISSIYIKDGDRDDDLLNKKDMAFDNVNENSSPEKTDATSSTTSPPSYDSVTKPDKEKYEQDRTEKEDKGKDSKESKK

[2] = target: T1, Sodium channel protein type 9 subunit alpha; assay: In Vitro PX Assay: HEK 293 cells stably transfected with human Nav1.7 were recorded in whole cell voltage clamp mode with the PatchXpress automated electrophysiology system (Molecular Devices, LLC, Sunnyvale, Calif.). Compound effects were measured on a partially inactivated state of the sodium channel. Cells were clamped to a holding potential yielding 20 to 50% inactivation. To elicit sodium current, channels were activated by pulsing to −10 mV for 20 msec. This voltage protocol was repeated at a rate of 0.1 Hz throughout the experiment. A single concentration of test compound was applied to cells for a duration of 3 minutes.; format: cell-based

Row | Structure (SMILES) | IC50 [1] [nM] | IC50 [2] [nM]
1 | CCOc1cccc(N2CCOc3cc(S(=O)(=O)Nc4nccs4)ccc32)c1 | 742 | 2850
2 | O=S(=O)(Nc1nccs1)c1ccc2c(c1)OCCN2c1ccccc1C(F)(F)F | 1660 | 8020
3 | O=S(=O)(Nc1nccs1)c1ccc2c(c1)OCCN2c1ccc(F)cc1F | 191 | 1820
4 | O=S(=O)(Nc1nccs1)c1ccc2c(c1)OCCN2c1cccc(Cl)c1Cl | 274 | 961
5 | Cc1c(Cl)cccc1N1CCOc2cc(S(=O)(=O)Nc3nccs3)ccc21 | 601 | 416
6 | COc1cc(C#N)ccc1N1CCOc2cc(S(=O)(=O)Nc3ccncn3)ccc21 |  | 910
7 | CN1CC=C(c2cc(C(F)(F)F)ccc2N2CCOc3cc(S(=O)(=O)Nc4ccncn4)ccc32)CC1 | 4.5 | 364
8 | O=C1CCCc2ccc(N3CCOc4cc(S(=O)(=O)Nc5nccs5)ccc43)cc21 | 1100 | 7100
9 | COc1ccc(N2CCOc3cc(S(=O)(=O)Nc4nccs4)ccc32)c(C#N)c1 | 2690 | 13800
10 | Cc1cc(N2CCOc3cc(S(=O)(=O)Nc4nccs4)ccc32)cc(C)c1N(C)C | 808 | 2370
11 | O=S(=O)(Nc1nccs1)c1ccc2c(c1)OCCN2c1ncc(Cl)cc1Cl | 397 | 4500
12 | CC(C)(C)OC(=O)N1CC=C(c2cc(C(F)(F)F)ccc2N2CCOc3cc(S(=O)(=O)Nc4ncns4)ccc32)CC1 | 81.8 | 306
13 | Cc1ccc(N2CCOc3cc(S(=O)(=O)Nc4nccs4)ccc32)cc1F | 7370 | 
14 | Cc1ccc(N2CCOc3cc(S(=O)(=O)Nc4nccs4)ccc32)cc1Cl | 733 | 1550
15 | O=S(=O)(Nc1nccs1)c1ccc2c(c1)OCCN2c1cccc2scnc12 | 3760 | 5760
16 | COc1cccc(N2CCOc3cc(S(=O)(=O)Nc4nccs4)ccc32)c1 | 141 | 2070
17 | O=S(=O)(Nc1nccs1)c1ccc2c(c1)OCCN2c1cc(F)ccc1F | 114 | 1110
18 | N#Cc1ccc(F)c(N2CCOc3cc(S(=O)(=O)Nc4nccs4)ccc32)c1 | 727 | 3190
19 | O=S(=O)(Nc1nccs1)c1ccc2c(c1)OCCN2c1ccc(-n2ccnc2)cc1 | 2690 | 13700
